IC50, EC50 and Papp data for 22 compounds are collected here from patent US10202390B2, “Heteroaryl substituted aminopyridine compounds” (BRISTOL-MYERS SQUIBB COMPANY, priority 2015, dated 2019).

In data set [1] the target is IRAK4 (Homo sapiens (Human), UniProt Q9NWZ3). The data set is described as follows: IRAK4 Inhibition Assay. Type of data set: biochemical. To be noted: ATP 500 μM; IRAK4 0.6 nM; 60 min room temperature. How it is done:
The assays were performed in U-bottom 384-well plates. The final assay volume was 30 μL prepared from 15 μL additions of enzyme and substrates (fluoresceinated peptide and ATP) and test compounds in assay buffer (20 mM HEPES pH 7.2, 10 mM MgCl2, 0.015% Brij 35 and 4 mM DTT). The reaction was initiated by the combination of IRAK4 with substrates and test compounds. The reaction mixture was incubated at room temperature for 60 min. and terminated by adding 45 μL of 35 mM EDTA to each sample. The reaction mixture was analyzed on the Caliper LABCHIP® 3000 (Caliper, Hopkinton, Mass.) by electrophoretic separation of the fluorescent substrate and phosphorylated product. Inhibition data were calculated by comparison to no enzyme control reactions for 100% inhibition and vehicle-only reactions for 0% inhibition. The final concentrations of reagents in the assays are ATP, 500 μM; FL-IPTSPITTTYFFFKKK peptide 1.5 μM; IRAK4, 0.6 nM; and DMSO, 1.6%.

Data set [2] concerns Human whole blood. The data set is described as follows: IRAK4 Whole Blood Assay (TLR2 agonist lipoteichoic acid induced IL-6). The class given is cell-based. To be noted: 10 μg/mL lipoteichoic acid (TLR2 agonist), 5 hours, IL-6 levels. How it is done:
Human whole blood containing the anti-coagulant ACD-A was plated in 384-well plate (25 μL/well) and incubated with compounds for 60 minutes at 37° C. in a 5% CO2 incubator. The blood was stimulated with a TLR2 agonist, 10 μg/mL final concentration of lipoteichoic acid (Invivogen, San Diego, Calif.) in 25 μL RPMI (Gibco) for 5 hours in a 5% CO2 incubator. At the end of the incubation, plates were centrifuged at 2300 rpm for 5 minutes. Supernatants were harvested and analyzed for IL-6 levels by Flow Cytometry beads assay (BD Biosciences, San Jose, Calif.).

A short description of data set [3]: Caco-2 Permeability Assay. The class given is in vitro ADME. To be noted: human, test compound 3 μM, 2 hours at 37° C., direction not given. How it is done: Caco-2 Permeability Assay Protocol
Thirteen to 27 days prior to assay, Caco-2 cells were seeded onto collagen-coated polycarbonate filter membranes in 24-well transwell plates at a density of 1.45×10^5 cells/cm^2, approximately 4.8×10^4 cells per well. The cells were grown in a culture medium consisting of DMEM supplemented with 10% fetal bovine serum, 10 mM HEPES, 1% nonessential amino acids, 2 mM L-glutamine, 100 U/mL penicillin-G, and 100 μg/mL streptomycin. The culture medium was replaced every 3 days and the cells were maintained at 37° C. in a 95% relative humidity and 5% CO2 atmosphere. The cells were evaluated for tight junction formation just prior to assay. The test compound was solubilized to 10 mM in 100% DMSO and diluted to 3 μM in assay buffer. Permeability studies were initiated by adding 200 μL assay buffer plus/minus compound to the apical transwell compartment and 600 μL assay buffer plus/minus compound to the basolateral compartment of the 24-well transwell low-binding cluster plate. For apical-to-basolateral (A to B) permeability (absorptive direction), buffer containing compound was placed in the apical compartment (donorwells), while buffer alone was placed in the corresponding basolateral compartments (receiverwells). For basolateral-to-apical (B to A) permeability (secretive direction), buffer containing compound was placed in the basolateral compartment (donor wells), while buffer alone was placed in the corresponding apical compartments (receiver wells). Transwells were then incubated for 2 hours at 37° C. in a 95% relative humidity and 5% CO2 atmosphere with gentle agitation. Following incubation, 100 μL was removed from each apical and basolateral compartment and transferred to 96-well low binding plates that had been previously loaded with 100 μL/well of acetonitrile containing 250 nM propranolol, 250 nM diclofenac, and 500 nM tolbutamide as internal standards. The samples were subsequently analyzed by LC-MS/MS to determine concentrations of compound.
Background: Passage across Caco-2 layers is used to estimate intestinal permeability.

IRAK4, sequence (Q9NWZ3 whole entry): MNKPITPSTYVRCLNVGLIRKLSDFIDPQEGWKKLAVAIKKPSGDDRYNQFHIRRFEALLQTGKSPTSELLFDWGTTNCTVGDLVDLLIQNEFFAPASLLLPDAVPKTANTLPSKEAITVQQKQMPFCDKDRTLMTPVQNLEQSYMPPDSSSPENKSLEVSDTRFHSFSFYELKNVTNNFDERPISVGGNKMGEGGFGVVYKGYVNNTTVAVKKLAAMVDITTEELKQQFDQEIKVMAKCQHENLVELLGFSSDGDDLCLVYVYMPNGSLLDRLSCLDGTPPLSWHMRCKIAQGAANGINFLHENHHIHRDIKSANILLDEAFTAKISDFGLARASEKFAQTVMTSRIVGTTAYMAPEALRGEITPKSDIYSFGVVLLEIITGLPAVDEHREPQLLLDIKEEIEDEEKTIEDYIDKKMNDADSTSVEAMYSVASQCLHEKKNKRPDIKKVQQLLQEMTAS

As usually defined, the IC50 is the point on the concentration scale where inhibition reaches its midpoint. Take `CC(C)Nc1cc(-c2cnn3cc(C#N)cnc23)ncc1-n1cc(C(C)(C)O)cn1` [Example 1, 3-(5-(4-(2-hydroxypropan-2-yl)-1H-pyrazol-1-yl)-4-(isopropylamino)pyridin-2-yl) pyrazolo[1,5-a]pyrimidine-6-carbonitrile]: the 50% inhibitory concentration (IC50) in data set [1] turned out to be 578 nM.
A word on the EC50: it is the concentration needed to bring the measured effect to its halfway point. `CC(C)Nc1cc(-c2cnc3cc(C#N)cnn23)ncc1-c1cnn(C2CCOCC2)c1` [Example 3, 3-(4-(isopropylamino)-5-(1-(tetrahydro-2H-pyran-4-yl)-1H-pyrazol-4-yl)pyridin-2-yl)imidazo[1,2-b]pyridazine-7-carbonitrile]: in data set [1], the IC50 came to 14 nM. The midpoint of the response in data set [2], the EC50, lay at 1030 nM.
For the compound `CC(C)Nc1cc(-c2cnc3cc(Cl)cnn23)ncc1-c1cnn(CC(C)(C)O)c1` [Example 4, 1-(4-(6-(7-chloroimidazo[1,2-b]pyridazin-3-yl)-4-(isopropylamino)pyridin-3-yl)-1H-pyrazol-1-yl)-2-methylpropan-2-ol], in data set [1], the IC50 was 396 nM.
Still for that read-out and setting: the same measure for `CC(C)Nc1cc(-c2cnc3cc(C#N)cnn23)ncc1-c1cnn(CC(C)(C)O)c1` [Example 5, 3-(5-(1-(2-hydroxy-2-methylpropyl)-1H-pyrazol-4-yl)-4-(isopropylamino)pyridin-2-yl)imidazo[1,2-b]pyridazine-7-carbonitrile]: 174 nM.
On to `CCCn1cc(-c2cnc(-c3cnc4cc(C#N)cnn34)cc2NC(C)C)cn1` [Example 6, 3-(4-(isopropylamino)-5-(1-propyl-1H-pyrazol-4-yl)pyridin-2-yl)imidazo[1,2-b]pyridazine-7-carbonitrile], for which, in data set [1], the IC50 was 18 nM. For the same compound, it took 4410 nM to reach a half-maximal effect in data set [2] (EC50).
As for `CC(C)Nc1cc(-c2cnc3cc(Cl)cnn23)ncc1-c1cnn(CC(F)(F)F)c1` [Example 7, 2-(7-chloroimidazo[1,2-b]pyridazin-3-yl)-N-isopropyl-5-(1-(2,2,2-trifluoroethyl)-1H-pyrazol-4-yl)pyridin-4-amine], in data set [1], the IC50 was 53 nM.
`CC(C)Nc1cc(-c2cnc3cc(C#N)cnn23)ncc1-c1cnn(CC(F)(F)F)c1` [Example 8, 3-(4-(isopropylamino)-5-(1-(2,2,2-trifluoroethyl)-1H-pyrazol-4-yl)pyridin-2-yl)imidazo[1,2-b]pyridazine-7-carbonitrile]: the IC50 in data set [1] is 43 nM.
Regarding `CCCn1cc(-c2cnc(-c3cnc4cc(Cl)cnn34)cc2Nc2cnn(CC(F)F)c2)cn1` [Example 9, 2-(7-chloroimidazo[1,2-b]pyridazin-3-yl)-N-(1-(2,2-difluoroethyl)-1H-pyrazol-4-yl)-5-(1-propyl-1H-pyrazol-4-yl)pyridin-4-amine], in data set [1], the IC50 was found to be 29 nM.
On to `CCCn1cc(-c2cnc(-c3cnc4cc(C#N)cnn34)cc2Nc2cnn(CC(F)F)c2)cn1` [Example 10, 3-(4-((1-(2,2-difluoroethyl)-1H-pyrazol-4-yl)amino)-5-(1-propyl-1H-pyrazol-4-yl)pyridin-2-yl)imidazo[1,2-b]pyridazine-7-carbonitrile], for which the IC50 in data set [1] is 20 nM.
As a reminder, the Papp is a coefficient for how fast a substance crosses the barrier. Read a high Papp as ready permeation. For `CCCc1cn(-c2cnc(-c3cnn4cc(Cl)cnc34)cc2NC(C)C)nn1` [Example 11, 2-(6-chloropyrazolo[1,5-a]pyrimidin-3-yl)-N-isopropyl-5-(4-propyl-1H-1,2,3-triazol-1-yl)pyridin-4-amine], the Papp at 2 h, 3 μM in data set [3] worked out at 17.9 ×10⁻⁶ cm/s. Besides, in data set [1], the IC50 is 8 nM.
Regarding `CC(C)Nc1cc(-c2cnn3cc(Cl)cnc23)ncc1-n1cc(CCC(C)(C)O)nn1` [Example 13, 4-(1-(6-(6-chloropyrazolo[1,5-a]pyrimidin-3-yl)-4-(isopropylamino)pyridin-3-yl)-H-1,2,3-triazol-4-yl)-2-methylbutan-2-ol], the IC50 in data set [1] is 3 nM. In data set [2], this compound gave an EC50 of 950 nM.
On to `CC(C)(O)CCc1cn(-c2cnc(-c3cnn4cc(Cl)cnc34)cc2NC2COC2)nn1` [Example 14, 4-(1-(6-(6-chloropyrazolo[1,5-a]pyrimidin-3-yl)-4-(oxetan-3-ylamino)pyridin-3-yl)-1H-1,2,3-triazol-4-yl)-2-methylbutan-2-ol], for which, in data set [1], the IC50 stood at 9 nM. In data set [2], this compound registered an EC50 of 820 nM.
Consider `CC(C)Nc1cc(-c2cnc3cc(C#N)cnn23)ncc1-c1cn(C2CCOCC2)nn1` [Example 16, 3-(4-(isopropylamino)-5-(1-(tetrahydro-2H-pyran-4-yl)-1H-1,2,3-triazol-4-yl)pyridin-2-yl)imidazo[1,2-b]pyridazine-7-carbonitrile], for which the IC50 in data set [1] stood at 2 nM.
Turning to `CC(=O)N1CC(n2cc(-c3cnc(-c4cnc5cc(C#N)cnn45)cc3NC(C)C)nn2)C1` [Example 17, 3-(5-(1-(1-acetylazetidin-3-yl)-1H-1,2,3-triazol-4-yl)-4-(isopropylamino)pyridin-2-yl)imidazo[1,2-b]pyridazine-7-carbonitrile], in data set [1], the IC50 amounted to 2 nM.
For `CCCn1cc(-c2cnc(-c3cnc4cc(Cl)cnn34)cc2NC2CC2)nn1` [Example 19, 2-(7-chloroimidazo[1,2-b]pyridazin-3-yl)-N-cyclopropyl-5-(1-propyl-1H-1,2,3-triazol-4-yl)pyridin-4-amine], the IC50 in data set [1] is 3 nM. The same compound gave an EC50 in data set [2] of 2320 nM.
As for `CCCn1cc(-c2cnc(-c3cnc4cc(Cl)cnn34)cc2NC(C)C)nn1` [Example 20, 2-(7-chloroimidazo[1,2-b]pyridazin-3-yl)-N-isopropyl-5-(1-propyl-1H-1,2,3-triazol-4-yl)pyridin-4-amine], the IC50 in data set [1] worked out at 12 nM.
Regarding `COC(=O)N1CCC(n2cc(-c3cnc(-c4cnc5cc(Cl)cnn45)cc3NC3CC3)nn2)[C@](C)(O)C1` (stereo partly drawn) [Example 21, (3R)-methyl 4-(4-(6-(7-chloroimidazo[1,2-b]pyridazin-3-yl)-4-(cyclopropylamino)pyridin-3-yl)-1H-1,2,3-triazol-1-yl)-3-hydroxy-3-methylpiperidine-1-carboxylate], in data set [1], the IC50 was 14 nM. The compound also yielded an EC50 in data set [2] of 2870 nM.
`CC(C)(O)CCc1cn(-c2cnc(-c3cnn4cc(Cl)cnc34)cc2NC2CCOCC2)nn1` [Example 23, 4-(1-(6-(6-chloropyrazolo[1,5-a]pyrimidin-3-yl)-4-((tetrahydro-2H-pyran-4-yl)amino)pyridin-3-yl)-1H-1,2,3-triazol-4-yl)-2-methylbutan-2-ol]: the IC50 in data set [1] amounted to 9 nM. For the same compound, the response in data set [2] was half-maximal at 990 nM (EC50).
Consider `CC(C)(O)CCc1cn(-c2cnc(-c3cnn4cc(C#N)cnc34)cc2NC2CC(F)(F)C2)nn1` [Example 24, 3-(4-((3,3-difluorocyclobutyl)amino)-5-(4-(3-hydroxy-3-methylbutyl)-1H-1,2,3-triazol-1-yl)pyridin-2-yl)pyrazolo[1,5-a]pyrimidine-6-carbonitrile], for which the IC50 in data set [1] came out at 14 nM. This compound had a half-maximal effective concentration (EC50) in data set [2] of 780 nM.
`CC(C)(O)CCc1cn(-c2cnc(-c3cnn4cc(C#N)cnc34)cc2NC2COC2)nn1` [Example 26, 3-(5-(4-(3-hydroxy-3-methylbutyl)-1H-1,2,3-triazol-1-yl)-4-(oxetan-3-ylamino)pyridin-2-yl)pyrazolo[1,5-a]pyrimidine-6-carbonitrile]: in data set [2], the EC50 was found to be 160 nM.
Consider `CC(C)Nc1cc(-c2cnc3cc(C#N)cnn23)ncc1-c1cc(C2CCOCC2)[nH]n1` [Example 28, 3-(4-(isopropylamino)-5-(5-(tetrahydro-2H-pyran-4-yl)-1H-pyrazol-3-yl)pyridin-2-yl)imidazo[1,2-b]pyridazine-7-carbonitrile], for which the IC50 in data set [1] was found to be 5 nM. Besides, the response in data set [2] was half-maximal at 590 nM (EC50).
Take `CC(C)(O)CCc1cc(-c2cnc(-c3cnn4cc(C#N)cnc34)cc2NC2CCOCC2)n[nH]1` [Example 29, 3-(5-(5-(3-hydroxy-3-methylbutyl)-1H-pyrazol-3-yl)-4-((tetrahydro-2H-pyran-4-yl)amino)pyridin-2-yl)pyrazolo[1,5-a]pyrimidine-6-carbonitrile]: the IC50 in data set [1] turned out to be 2 nM. Besides, in data set [2], a half-maximal response (EC50) required 510 nM.
